How the values were obtained:
[1] = Oxygen transport across the skin, transcutaneous oxygen monitor (TCOM); format: in vivo; details: normal rat switched to 100% oxygen at time zero, intravenous injection in the femoral vein, versus saline control
Method: Diffusion enhancing compounds such as kosmotropes increase the oxygen transport in vivo. In the subject experiment, the oxygen diffusing through the skin of a normal, non-diseased rat was measured using a transcutaneous oxygen monitor (TCOM). In the subject study, the rats breathed air and then were switched to breathing 100% oxygen at a time equal to zero. Also at time zero, the rats were injected (intravenously in the femoral vein) with either saline (control), trehalose, glycine betaine, or TSC.

[2] = rats breathing 100% oxygen; cited from earlier work
[3] = TSC concentrations from 1 μmole/liter to around 200 μmole/liter; cited from earlier work
[4] = Glucose diffusion through aqueous kosmotrope solutions, microinterferometric method; format: physicochemical; details: about 10 μM kosmotrope in water, 25° C., glucose 0.9 molar
Method: The diffusion of glucose through aqueous solutions of the above-mentioned kosmotropes was measured using a microinterferometric method, Secor, R. M., AIChE Journal, 11: 452-456, 1965.
In this method, a wedge is formed by two microscope slides that have a partial coating of a metal such as aluminum on the inner sides of the wedge. The wedge is placed on a microscope stage and illuminated from below using some source of monochromatic light, such as a helium-neon laser. As the light passes through the wedge, the partial coating of aluminum allows some light to be transmitted, while some is reflected. This creates constructive and destructive lines known as interference fringes. The interference fringes can then be magnified by a microscope and recorded with a camera.
Molecules of glucose will diffuse along a concentration gradient of glucose. Since the refractive index of the solution is related to the concentration of the glucose, the fringes at a given point will change with time. […]
Solutions of three kosmotropes (proline, betaine and trehalose) in water were made, so that the solutions contained about 10 μM of each of the kosmotropes. Using the trehalose solution as an example, the diffusivity of glucose through each of these solutions was then measured in the following way.
The trehalose solution was divided into two parts. […] A camera recorded the resulting fringe pattern. […]

SMILES | oxygen transport across the skin (TCOM readings) [1] | brain oxygen level [2] | increase in the diffusivity of glucose through water [3] | diffusivity of glucose through the solution compared with plain water [4]
CC(/C=C/C=C(\C)C(=O)[O-])=C\C=C\C=C(C)\C=C\C=C(/C)C(=O)[O-].[Na+].[Na+] [TSC, trans sodium crocetinate] | increased oxygen transport across the skin | further increased the brain oxygen level | around 30% | 
C[N+](C)(C)CC(=O)O [glycine betaine, Glycine betaine] | increased oxygen transport across the skin |  |  | 
OC[C@H]1O[C@H](O[C@H]2O[C@H](CO)[C@@H](O)[C@H](O)[C@H]2O)[C@H](O)[C@@H](O)[C@@H]1O [trehalose, Trehalose] | increased oxygen transport across the skin |  |  | greater than the value of glucose through plain water
